Assay results reported in US20250275938A1, “COMPOSITIONS AND METHODS FOR TREATMENT OF CANCER” (SCIROSBIO (FZC), priority 2022, published 2025).

Key:
[1] = tested on: human breast cancer (MDA-MB-453) cells; experiment: MTT cell viability assay, MDA-MB-453; type: cell-based; conditions: 24 hours
Method: Cell lines and culture conditions: A human breast cancer cell line MDA-MB-453 and human bone cancer cell line SaoS2 were obtained from National Centre for Cell Science (NCCS), Pune, India. The MDA-MB-453 cells were sub-cultured in Dulbecco's Modified Eagle's Medium (DMEM) supplemented with 10% FBS at 5% CO2 and 37° C. The SaoS2 cells were sub-cultured in McCoy's 5A media supplemented with 10% FBS at 5% CO2 and 37° C. […] The cells were allowed to attach 70% to the surface prior to treatment. […] Suspensions were aspirated 10 times before treatment. Cells treated with vehicle control were used as a control. Cell viability assay: MDA-MB-453 and SaoS2 cells (5×10^3 cells/ml) were seeded in 96-well plates and exposed to different individual-drug treated groups with varying concentrations (0, 20, 40, 60, 80, 100, 120, 140, 160, 180 and 200 μM) for a period of 24 hours.

Ki67 = experiment: Immunohistochemistry of tumor sections, Ki67; type: in vivo, rat; conditions: i.p. 7 days; tumor-control 36.73%
VEGF = experiment: Immunohistochemistry of tumor sections, VEGF; type: in vivo, rat; conditions: i.p. 7 days; tumor-control 73.58%
Method: Immunohistochemistry. For immunohistochemistry (IHC) analysis, 4 μm thick tissue sections were deparaffinized in xylene and hydrated by immersing in a series of graded ethanol concentration (100%, 95%, 75% and 50%). Endogenous peroxidase activity was blocked by incubating sections in 3% H2O2 solution prepared in methanol at room temperature for 10 minutes and were washed with PBS twice for 5 minutes each. Antigen retrieval was performed by immersing the slides in 300 ml of retrieval buffer (10 mM citrate buffer, pH 6.0) for one hour at 100° C. and were rinsed twice in PBS. Sections were then incubated with approximately 100 μl diluted primary antibodies of Ki67 (1:100 dilution, Elabscience, Wuhan, China) and Vascular Endothelial Growth Factor (VEGF) (1:100 dilution, Elabscience, Wuhan, China) for 30 minutes at room temperature. The slides were then washed twice with PBS and were then incubated with approximately 100 μl of diluted secondary antibody (Cat No. E-IR-R213, Elabscience, Wuhan, China) at room temperature for 30 minutes. Slides were then washed in PBS for 5 minutes, followed by incubation with approximately 100 μl diluted Horse Radish Peroxidase (HRP) conjugate for 30 minutes. […] The staining intensities were quantified using IHC Profiler, a plugin in ImageJ software, to determine the H-score (Histo score).

[2] = tested on: U87MG human glioma cell line; experiment: MTT cell viability assay, U87MG; type: cell-based
Method: (§1) Cell lines and culture conditions. A human glioma cell line, U87MG, a rat glioma cell line, C6, and normal HEK293T (Human Embryonic Kidney) cells were obtained from National Centre for Cell Science (NCCS), Pune, India. The cells were sub-cultured in Dulbecco's Modified Eagle's Medium (DMEM) supplemented with 10% FBS at 5% CO2 and 37° C. At 85% confluence, the cells were harvested using 0.25% trypsin and seeded in 25 cm^2 flasks, 96 well, and 6-well plates, according to the experiment being performed. The cells were allowed to attach 70% to the surface prior to treatment. A stock solution of all the drugs (10 mg/ml) was made in a vehicle and diluted to the required concentrations. Suspensions were aspirated 10 times before treatment. Cells treated with vehicle control were used as a control.
(§2) Cell viability assay. U87MG and C6 cells (5×10^3 cells/ml) were seeded in 96-well plates and exposed to different individual-drug treated groups with varying concentrations (0, 10, 40, 80, 120, and 160 μM) for a period of 24 hours, whereas HEK293T cells (5×10^3 cells/ml) were seeded at the inhibitory concentration (IC) at 50% of drugs, either alone or in combination. The individual-treated groups include Group I: untreated control glioma cells; Group II: TMZ-treated glioma cells; Group III: MET-treated glioma cells; and Group IV: EGCG-treated glioma cells.
(§3) After a 24 hour treatment period, the cells were allowed to react with MTT for 4 hours in dark at 37° C. At the end of the incubation period, the dark purple formazan crystals formed were solubilized with DMSO and the absorbance was measured spectrophotometrically at 595 nm (Molecular Devices Spectra-Max M5, USA). The experiments were repeated at least three times. To determine the cell viability, the percentage of viability was calculated as follows:
(§4) % viability=[(Optical density {OD} of treated cells−OD of Blank)/(OD of control−OD of blank)]×100.
(§5) Calculation of IC50 value. The IC50 of a drug was determined using y=m(x)+c equation (where: ‘y’ & ‘x’ are the respective coordinates of y & x-axis, ‘m’ is the slope and ‘c’ is the constant) derived from the trendlines of each scattered plots MMT assay. […] The IC50 and IC25 were also calculated for the dual combinations. The IC50 for the triple combination was calculated by keeping the IC25 of the dual-combination constant, and the third drug was used in varying concentrations (0, 10, 40, 80, 120, and 160 μM) (Table 1).
(§6) Combination index of drugs. According to the Chou-Talalay method, The statistical Combination Index (CI) of the drugs was performed according to the Chou-Talay method (Ma et al, Stem Cell Reports, 2017 9(6):1948-1960) to determine whether various drug combinations were synergistic, additive, or antagonistic, as shown in Table 1. This was performed for Groups V-IX using the following formula:
(§7) Combination index (CI) of Drugs 1 & 2=(IC50 of drug-1 in combination/IC50 of drug-1 individually)+(IC50 of drug-2 in combination/IC50 of drug-2 individually).

[3] = tested on: HEK293T (Human Embryonic Kidney) cells; experiment: Trypan blue exclusion cytotoxicity on normal cell line; type: cell-based; conditions: treated at IC50 values determined in U87MG and C6, 24 hours
Method: Cytotoxicity on a normal cell line.
Furthermore, to check for the cytotoxicity of the drugs, a trypan blue dye exclusion assay was performed on a normal cell line, HEK293T, using the IC50 values of each drug, individually and in combination, as determined in U87MG and C6 cells and shown in Table 2.

[4] = LC/MS of drugs and active metabolites in plasma and brain (blood brain barrier); type: in vivo, rat; conditions: for Detected mass in LC-MS Plasma / Detected mass in LC-MS Brain: NA = not detected
Method: T, M & E (Sigma Aldrich, St. Louis, USA) were dissolved in sterile water and administered intra peritoneally for 7 days (from day 21 to day 27; where the day of tumor induction is considered day 0) to a rat with the dose specified in Table-4 (TME: 50+80+150 mg/kg body weight). After 7 days of treatment (on day 28), blood (plasma) was collected and the rat was euthanized, immediately the brain tissue was collected and stored at −80° C. The brain tissue was then processed accordingly to measure active metabolites through LC/MS.
To 100 μl of plasma or brain (0.5 g crushed in 0.5 mL of sterile water), 20 μl of the working internal standard solution was added. The samples were deproteinised with acetonitrile and the supernatant (100 μl) was injected into the chromatographic system. For the brain, as described above, ciprofloxacin solution (20 μl) was added to 100 μl of crushed brain. Then, repeating the plasma sample process, 20 μl of the solution was injected into the chromatographic system.

C6 rat glioma cell line = experiment: MTT cell viability assay, C6; type: cell-based
Method: as §1, §2, §3, §4, §5, §6, §7

[5] = tested on: human pancreatic cancer (PANC1) cells; experiment: MTT cell viability assay, PANC1; type: cell-based; conditions: 24 hours
Method: Cell lines and culture conditions: A human pancreatic cancer cell line PANC1 and human colon cancer cell line HCT116 were obtained from National Centre for Cell Science (NCCS), Pune, India. The PANC1 cells were sub-cultured in Dulbecco's Modified Eagle's Medium (DMEM) supplemented with 10% FBS at 5% C02 and 37° C. The HCT116 cells were sub-cultured in McCoy's 5A media supplemented with 10% FBS at 5% CO2 and 37° C. […] The cells were allowed to attach 70% to the surface prior to treatment. […] Suspensions were aspirated 10 times before treatment. Cells treated with vehicle control were used as a control. Cell viability assay: PANC1 and HCT116 cells ([…] cells/ml) were seeded in 96-well plates and exposed to different individual-drug treated groups with varying concentrations (0, 20, 40, 60, 80, 100, 120, 140, 160, 180 and 200 μM) for a period of 24 hours. The individual-treated groups include Group I: 5 Fluorouracil (5FU)-treated PANC1 and HCT116 cells; Group II: MET-treated PANC1 and HCT116 cells; Group III: EGCG-treated PANC1 and HCT116 cells and Group IV: 5FU+[…] PANC1 and HCT116 cells.

[6] = tested on: human hepatocellular carcinoma (HepG2) cells; experiment: MTT cell viability assay, HepG2; type: cell-based; conditions: 24 hours
Method: Cell lines and culture conditions. A human hepatocellular carcinoma (HepG2) and ovarian cancer (SKOV3) cells were obtained from National Centre for Cell Science (NCCS), Pune, India. The cells HepG2 and SKOV3 were sub-cultured in Eagle's Minimum Essential Medium (EMEM) and McCoy's 5a supplemented with 10% FBS at 5% CO2 and 37° C. […] The cells were allowed to attach 70% to the surface prior to treatment. A stock solution of all the drugs (10 mg/ml) was made in distilled H2O and diluted to the required concentrations. Suspensions were aspirated 10 times before treatment. Cells treated with vehicle control were used as a control.

[7] = as used in the triple combination for CI
[8] = triple combination TME 50+80+150 mg/kg i.p. 7 days
[9] = individually treated T, M and E, i.p. 7 days

COc1cccc2c1C(=O)c1c(O)c3c(c(O)c1C2=O)C[C@@](O)(C(=O)CO)C[C@@H]3O[C@H]1C[C@H](N)[C@H](O)[C@H](C)O1 [DOX, Doxorubicin]
cell viability (MTT), in words [1]: reduction in cell viability in a dose-dependent fashion

Cn1nnc2c(C(N)=O)ncn2c1=O [TMZ, 3-methyl-3-oxoimidazo[5,1-d] [1,2,3,5] tetrazine-8-carboxamide]
Ki67 nuclear positivity rate (Ki67): 13.14% | cytoplasmic positivity for VEGF (H-score) (VEGF): 25.83% | IC50 ([2]; Homo sapiens, U-87 MG, individual drug, 24 hours, mean ± SD, no unit in table, test concentrations given in μM, read-out: Inhibitory Concentration at 50% (IC50) U87MG Cells): 77 ± 1.14 µM | IC25 U87MG [2, 7]: 18.94 µM | toxicity in normal HEK293T cells [3]: higher toxicity | transport across the blood brain barrier, in words ([4]; administered individually and in combination): crossed BBB in the form of their active metabolites | Detected mass in LC-MS Plasma [4, 8]: 198.93 | IC50 (C6 rat glioma cell line; Rattus norvegicus, C6, individual drug, 24 hours, mean ± SD, no unit in table, test concentrations given in μM, read-out: Inhibitory Concentration at 50% (IC50) C6 Cells): 72 ± 1.32 µM | IC25 C6 (C6 rat glioma cell line; [7]): 31.76 µM

O=c1[nH]cc(F)c(=O)[nH]1 [5FU, 5-Fluorouracil]
cell viability (MTT), in words [5]: reduction in cell viability in a dose-dependent fashion

NC(=O)c1[nH]cnc1N [AIC, 5-amino-imidazole-4-carboxamide]
Detected mass in LC-MS Brain [4, 9]: 123.09 | Detected mass in LC-MS Plasma [4, 9]: 127.02 | Detected mass in LC-MS Brain [4, 8]: 123.05 | Detected mass in LC-MS Plasma [4, 8]: 127.02

CNC(=O)c1cc(Oc2ccc(NC(=O)Nc3ccc(Cl)c(C(F)(F)F)c3)cc2)ccn1 [SOR, Sorafenib]
cell viability (MTT), in words [6]: reduction in cell viability in a dose-dependent fashion
